Data on one molecule can be found in patent publication US20260335238A1, “SPRAY-DRIED COMPOSITIONS COMPRISING CGRP RECEPTOR ANTAGONISTS” (OREXO AB, priority 2023, published 2026).

Structures are written as SMILES.

The data set can be described thus: Chemical stability of spray-dried zavegepant powder on storage, assay and % RS by HPLC/UV. Type of data set: physicochemical. Particulars: zavegepant formulated as spray-dried powder, stored up to 6 months at 25/60 and 40/75. Here is the method:
The assay and purity, determined by HPLC/UV analysis, was 103.4% with a % RS of 1.46%.
Amounts of around 100 mg of the spray-dried powder from Example 2 above was dispensed into plastic DUMA containers placed in heat-sealed aluminium pouches together with a 4 Å molecular sieve desiccant. Two containers were placed inside a climate cabinet at 40 °C and 75% relative humidity (40/75) and two containers were placed inside a climate cabinet at 25 °C and 60% relative humidity (25/60).
The chemical stability of the drug substance after 6 months, with assay and total amounts of impurities and degradation products expressed as % RS, is summarized for the different climates in Table 3 below, in which NA means ‘not analysed’.

As for `Cc1cc(C[C@@H](NC(=O)N2CCC(c3cc4ccccc4[nH]c3=O)CC2)C(=O)N2CCN(C3CCN(C)CC3)CC2)cc2cn[nH]c12` [zavegepant], the “chemical stability (observed changes in % RS)” value is given as “surprisingly good”.
